# Measured values as given in patent US20150197802A1 (priority 2012, published 2015).
# Like-named read-outs stand apart in the source and are kept apart here.
# What was measured:
# [1] = system: renal proximal tubule; conditions: cited from earlier work; for classification of the test compound with regard to nephrotoxicity: group of the test compound; for nephrotoxic effects in humans: clinical, clinically relevant concentrations
# [2] = system: HPTC; assay type: cell-based, human
# [3] = system: human primary renal proximal tubular cells (HPTC); assay: IL-6 and IL-8 expression (qPCR) in renal proximal tubular cells after 16 h exposure
molecule,measurement,setting,value
OCCO [ethylene glycol],classification of the test compound with regard to nephrotoxicity,[1],non-PT-specific nephrotoxin
gentamicin,"IL-8 expression, up-regulation compared with the other marker genes tested",[2],highest levels of up-regulation
[Cl][Cu][Cl] [CuCl2],classification of the test compound with regard to nephrotoxicity,[1],PT-specific nephrotoxin
N.N.[Cl][Pt][Cl] [cisplatin],cell death,"[3]; HPTC 1, highest concentration tested, dose-response FIG. 2",massive cell death
CN(C)[C@@H]1C(O)=C(C(N)=O)C(=O)[C@@]2(O)C(O)=C3C(=O)c4c(O)cccc4[C@@](C)(O)[C@H]3C[C@@H]12 [tetracycline],test result in the IL-6/IL-8 expression method (positive = predicted PT-specific nephrotoxin),"[3]; 1 μg/ml to 1000 μg/ml, 16 h",positive
same,nephrotoxic effects in humans,[1],"usually no obvious nephrotoxic effects, but can induce AKI and ESRD in patients with pre-existing kidney disease"
[Cl][Cd][Cl] [CdCl2],"IL-8 expression, up-regulation compared with the other marker genes tested","[2]; two batches of HPTC, high doses (2.5 mg/ml gentamicin, 10 mg/ml CdCl2), FIG. 1",highest levels of up-regulation
C[C@@H]1C[C@H]2[C@@H]3CCC4=CC(=O)C=C[C@]4(C)[C@@]3(F)[C@@H](O)C[C@]2(C)[C@@]1(O)C(=O)CO [dexamethasone],classification of the test compound with regard to nephrotoxicity,[1],not nephrotoxic
C[C@H](Cn1cnc2c(N)ncnc21)OCP(=O)(O)O [tenofovir],nephrotoxic effects in humans,[1],injures the renal proximal tubules
